Columns and labels:
TDE1909 (CdaA) = TDE1909 (CdaA) (Treponema denticola, UniProt Q73LF5); assay type: biochemical; conditions: 150 µM ATP, 5 µM enzyme, 10 mM MnCl2, pH 7.5, 37 °C, 1-4 hr
TDE0087 (TrkA) = target: T1, TDE0087 (TrkA) (Treponema denticola, UniProt Q73RK1); assay: ELISA-type plate binding, immobilised protein, streptavidin-HRP; conditions: labelled compound (biotinylated c-di-AMP, 125 nM); 50 mM Tris-HCl pH 8.0, 750 mM KCl, 2.5 mM EDTA, 2 hr
T1 sequence (Q73RK1 1-466): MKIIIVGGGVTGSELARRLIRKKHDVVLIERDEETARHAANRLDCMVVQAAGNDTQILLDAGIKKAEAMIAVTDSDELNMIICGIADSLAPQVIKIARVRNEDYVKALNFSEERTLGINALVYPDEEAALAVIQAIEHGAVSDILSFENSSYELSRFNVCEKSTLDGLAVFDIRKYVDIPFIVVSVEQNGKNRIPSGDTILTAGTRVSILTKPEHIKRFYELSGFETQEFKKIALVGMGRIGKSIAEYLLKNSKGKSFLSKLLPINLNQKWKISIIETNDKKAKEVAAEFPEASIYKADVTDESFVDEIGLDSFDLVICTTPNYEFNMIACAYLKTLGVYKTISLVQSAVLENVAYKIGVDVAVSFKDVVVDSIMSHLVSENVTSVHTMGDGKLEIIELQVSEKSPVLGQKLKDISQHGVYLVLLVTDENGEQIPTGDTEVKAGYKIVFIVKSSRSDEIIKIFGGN

TDE0027 (DhhA) = TDE0027 (DhhA) (Treponema denticola, UniProt Q73RQ8); assay: absorbance at […] nm; assay type: biochemical; conditions: MnCl2 buffer, 30 min

SMILES	RP-HPLC of reaction products (TDE1909 (CdaA))	ELISA-type plate binding, immobilised protein, streptavidin-HRP (TDE0087 (TrkA))	absorbance at 405 nm (TDE0027 (DhhA))
Nc1ncnc2c1ncn2[C@@H]1O[C@H](COP(=O)(O)OP(=O)(O)OP(=O)(O)O)[C@@H](O)[C@H]1O [ATP]	we observed that CdaA converted ATP to c-di-AMP while CdaR did not	–	–
Nc1ncnc2c1ncn2[C@@H]1O[C@@H]2COP(=O)(O)O[C@H]3[C@@H](O)[C@H](n4cnc5c(N)ncnc54)O[C@@H]3COP(=O)(O)O[C@H]2[C@H]1O [c-di-AMP]	we observed that CdaA converted ATP to c-di-AMP while CdaR did not	TDE0087 bound c-di-AMP similarly to the CabP control	–
O=[N+]([O-])c1ccc(OP(=O)(O)Oc2ccc([N+](=O)[O-])cc2)cc1 [bis-pNPP]	–	–	TDE0027 hydrolyzed bis-pNPP but not pNPP

— publication PMC11368658 (Molecular oral microbiology, 2024)
